Results: patent US9776995B2, “Bicyclic sulfonamide compounds as sodium channel inhibitors” (AMGEN INC., priority 2013, dated 2017)
Like-named read-outs stand apart in the source and are kept apart here. Values belong to the compound of their own block, whether it stands above or below them.

How the values were obtained:
[1] = target: Nav 1.7 (Homo sapiens (Human), UniProt Q15858); assay: in-vitro Nav 1.7 PX data; format: cell-based
[2] = target: Nav 1.5 (Homo sapiens (Human), UniProt Q14524); assay: in-vitro Nav 1.5 PX data; details: read-out: Nav 1.5 PX IC50
Sequence of Nav 1.5 (Q14524 whole entry): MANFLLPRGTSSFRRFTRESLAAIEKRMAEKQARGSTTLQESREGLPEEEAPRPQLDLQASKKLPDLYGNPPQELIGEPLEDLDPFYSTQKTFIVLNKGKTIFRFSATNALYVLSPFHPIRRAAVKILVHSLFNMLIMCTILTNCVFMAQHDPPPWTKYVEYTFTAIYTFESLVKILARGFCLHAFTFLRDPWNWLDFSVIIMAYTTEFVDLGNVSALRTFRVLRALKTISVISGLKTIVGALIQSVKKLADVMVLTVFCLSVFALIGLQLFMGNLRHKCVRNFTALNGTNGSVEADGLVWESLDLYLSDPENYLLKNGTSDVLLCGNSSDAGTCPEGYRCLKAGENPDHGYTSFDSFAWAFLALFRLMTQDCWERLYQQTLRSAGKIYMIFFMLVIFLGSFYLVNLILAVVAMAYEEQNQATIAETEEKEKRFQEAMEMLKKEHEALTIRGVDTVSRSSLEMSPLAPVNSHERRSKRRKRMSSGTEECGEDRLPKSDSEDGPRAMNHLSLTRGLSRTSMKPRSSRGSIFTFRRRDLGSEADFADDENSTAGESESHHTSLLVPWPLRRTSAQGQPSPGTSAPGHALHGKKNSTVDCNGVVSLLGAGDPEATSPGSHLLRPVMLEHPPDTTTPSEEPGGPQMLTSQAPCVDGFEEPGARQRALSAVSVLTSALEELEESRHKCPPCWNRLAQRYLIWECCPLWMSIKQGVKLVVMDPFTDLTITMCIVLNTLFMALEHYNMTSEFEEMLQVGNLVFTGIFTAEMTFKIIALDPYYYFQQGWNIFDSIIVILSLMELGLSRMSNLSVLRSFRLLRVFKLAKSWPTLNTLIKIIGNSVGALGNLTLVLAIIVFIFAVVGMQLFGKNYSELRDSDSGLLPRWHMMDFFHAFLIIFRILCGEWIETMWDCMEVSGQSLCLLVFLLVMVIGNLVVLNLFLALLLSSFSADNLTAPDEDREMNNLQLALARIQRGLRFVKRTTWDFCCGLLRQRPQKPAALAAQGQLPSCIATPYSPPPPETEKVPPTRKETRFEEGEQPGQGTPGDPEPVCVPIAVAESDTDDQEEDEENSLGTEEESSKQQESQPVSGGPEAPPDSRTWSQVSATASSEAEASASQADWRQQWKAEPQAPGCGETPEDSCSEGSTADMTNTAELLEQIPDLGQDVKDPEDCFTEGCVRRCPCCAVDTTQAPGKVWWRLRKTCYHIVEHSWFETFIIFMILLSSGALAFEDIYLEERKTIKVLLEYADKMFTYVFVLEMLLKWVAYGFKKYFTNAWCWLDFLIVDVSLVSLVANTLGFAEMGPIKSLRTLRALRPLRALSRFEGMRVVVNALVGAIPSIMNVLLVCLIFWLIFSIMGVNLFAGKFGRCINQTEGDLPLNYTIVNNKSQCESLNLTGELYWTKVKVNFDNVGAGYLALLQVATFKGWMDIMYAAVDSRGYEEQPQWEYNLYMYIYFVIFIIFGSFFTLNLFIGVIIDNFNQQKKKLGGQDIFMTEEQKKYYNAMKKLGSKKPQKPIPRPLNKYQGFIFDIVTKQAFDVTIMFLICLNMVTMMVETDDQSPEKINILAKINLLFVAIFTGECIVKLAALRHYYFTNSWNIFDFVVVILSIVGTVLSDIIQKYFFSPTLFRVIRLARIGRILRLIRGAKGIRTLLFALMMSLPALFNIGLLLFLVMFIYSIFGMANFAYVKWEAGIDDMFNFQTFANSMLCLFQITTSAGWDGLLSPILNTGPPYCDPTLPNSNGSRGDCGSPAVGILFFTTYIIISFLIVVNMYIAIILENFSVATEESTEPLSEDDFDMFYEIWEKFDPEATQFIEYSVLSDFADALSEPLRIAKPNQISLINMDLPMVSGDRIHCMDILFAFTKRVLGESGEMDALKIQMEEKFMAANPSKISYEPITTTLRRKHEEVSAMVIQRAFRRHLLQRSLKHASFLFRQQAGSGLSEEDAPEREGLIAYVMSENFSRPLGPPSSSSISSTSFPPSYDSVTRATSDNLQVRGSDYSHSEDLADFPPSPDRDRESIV

Sequence of Nav 1.7 (Q15858 whole entry): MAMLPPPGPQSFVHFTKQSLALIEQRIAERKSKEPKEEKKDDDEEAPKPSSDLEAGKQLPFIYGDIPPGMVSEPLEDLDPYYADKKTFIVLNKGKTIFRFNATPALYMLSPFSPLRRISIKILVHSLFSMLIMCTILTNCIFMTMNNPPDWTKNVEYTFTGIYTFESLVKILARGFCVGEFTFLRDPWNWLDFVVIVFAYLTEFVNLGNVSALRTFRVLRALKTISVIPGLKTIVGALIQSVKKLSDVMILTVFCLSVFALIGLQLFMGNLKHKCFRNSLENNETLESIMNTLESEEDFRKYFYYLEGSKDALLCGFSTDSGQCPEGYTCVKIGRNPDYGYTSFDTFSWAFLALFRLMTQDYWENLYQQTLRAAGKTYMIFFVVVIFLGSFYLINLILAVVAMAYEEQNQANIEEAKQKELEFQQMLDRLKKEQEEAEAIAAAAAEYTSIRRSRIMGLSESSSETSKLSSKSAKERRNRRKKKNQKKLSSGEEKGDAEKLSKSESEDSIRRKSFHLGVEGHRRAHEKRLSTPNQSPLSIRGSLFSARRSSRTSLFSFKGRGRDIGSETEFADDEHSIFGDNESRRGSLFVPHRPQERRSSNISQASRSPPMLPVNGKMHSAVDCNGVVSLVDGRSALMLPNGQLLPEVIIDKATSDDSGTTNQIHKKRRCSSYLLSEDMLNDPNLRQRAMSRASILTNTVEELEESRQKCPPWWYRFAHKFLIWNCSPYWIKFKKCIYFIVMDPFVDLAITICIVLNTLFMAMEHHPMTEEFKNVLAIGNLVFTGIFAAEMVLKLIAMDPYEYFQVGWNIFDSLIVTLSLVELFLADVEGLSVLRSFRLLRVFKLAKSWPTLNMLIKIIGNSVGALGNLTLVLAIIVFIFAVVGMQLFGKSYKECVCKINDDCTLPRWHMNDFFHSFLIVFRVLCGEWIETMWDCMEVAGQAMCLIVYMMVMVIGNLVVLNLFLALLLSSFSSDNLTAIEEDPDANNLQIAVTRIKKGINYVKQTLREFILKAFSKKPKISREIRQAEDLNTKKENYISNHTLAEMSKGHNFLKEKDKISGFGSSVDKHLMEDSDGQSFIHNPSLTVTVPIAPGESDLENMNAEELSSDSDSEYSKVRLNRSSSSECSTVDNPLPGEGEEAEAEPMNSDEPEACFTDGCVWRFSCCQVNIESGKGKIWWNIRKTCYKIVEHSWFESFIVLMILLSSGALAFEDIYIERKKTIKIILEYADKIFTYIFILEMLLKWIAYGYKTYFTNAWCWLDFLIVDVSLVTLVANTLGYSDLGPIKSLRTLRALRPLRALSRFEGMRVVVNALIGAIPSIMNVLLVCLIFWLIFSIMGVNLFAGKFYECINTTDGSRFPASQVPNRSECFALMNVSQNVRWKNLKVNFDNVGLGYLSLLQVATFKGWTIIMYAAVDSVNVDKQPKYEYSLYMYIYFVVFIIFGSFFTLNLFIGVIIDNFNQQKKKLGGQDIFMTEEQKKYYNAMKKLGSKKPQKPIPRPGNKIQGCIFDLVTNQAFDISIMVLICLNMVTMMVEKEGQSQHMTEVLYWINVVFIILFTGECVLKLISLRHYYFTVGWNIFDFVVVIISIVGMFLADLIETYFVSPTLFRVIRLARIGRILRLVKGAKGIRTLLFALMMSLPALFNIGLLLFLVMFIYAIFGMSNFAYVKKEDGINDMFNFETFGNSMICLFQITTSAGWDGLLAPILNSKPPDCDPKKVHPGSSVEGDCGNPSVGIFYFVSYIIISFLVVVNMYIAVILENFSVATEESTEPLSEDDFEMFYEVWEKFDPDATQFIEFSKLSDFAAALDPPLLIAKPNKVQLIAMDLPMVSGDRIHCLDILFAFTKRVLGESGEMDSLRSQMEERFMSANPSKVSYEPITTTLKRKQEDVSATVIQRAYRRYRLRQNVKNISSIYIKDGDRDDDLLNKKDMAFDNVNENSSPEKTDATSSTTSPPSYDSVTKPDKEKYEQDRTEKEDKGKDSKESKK

Compound: COc1cc(-c2cc(F)cnc2OC)c(C#N)cc1-c1ncnc2cc(S(=O)(=O)Nc3ccon3)ccc12 [Example 201, 4-(5-cyano-4-(5-fluoro-2-methoxy-3-pyridinyl)-2-methoxyphenyl)-N-3-isoxazolyl-7-quinazolinesulfonamide]
IC50 ([1]; in-vitro PX (PatchXpress) data): 0.424 µM
IC50 ([2]; in-vitro PX (PatchXpress) data): > 10 µM

Compound: COc1cc(-c2cc(C)cnc2OC)ccc1-c1nccc2cc(S(=O)(=O)Nc3nncs3)ccc12 [Example 188, 1-(2-methoxy-4-(2-methoxy-5-methyl-3-pyridinyl)phenyl)-N-1,3,4-thiadiazol-2-yl-6-isoquinolinesulfonamide]
IC50 ([1]; in-vitro PX (PatchXpress) data): 0.215 µM
IC50 ([2]; in-vitro PX (PatchXpress) data): > 30 µM

Compound: COc1cc(-c2cccc(F)c2)c(Cl)cc1-c1nncc2cc(S(=O)(=O)Nc3nncs3)ccc12 [Example 9, 1-(2-CHLORO-3′-FLUORO-5-METHOXY-[1,1′-BIPHENYL]-4-YL)-N-(1,3,4-THIADIAZOL-2-YL)PHTHALAZINE-6-SULFONAMIDE]
IC50 ([1]; in-vitro PX data): 0.112 µM
IC50 ([2]; in-vitro PX data): > 10 µM

Compound: COc1cc(-c2ccc(C)c(Cl)c2)c(C#N)cc1-c1nccc2cc(S(=O)(=O)Nc3nncs3)ccc12 [Example 229, 1-(3′-chloro-2-cyano-5-methoxy-4′-methyl-4-biphenylyl)-N-1,3,4-thiadiazol-2-yl-6-isoquinolinesulfonamide]
IC50 ([1]; in-vitro PX): 0.0205 µM
IC50 ([2]; in-vitro PX): > 10 µM

Compound: 1-(2-cyano-5-methoxy-2′-methyl-4-biphenylyl)-N-1,3,4-thiadiazol-2-yl-6-isoquinolinesulfonamide [Example 220]
IC50 ([1]; in-vitro PX): 0.0401 µM
IC50 ([2]; in-vitro PX): > 10 µM

Compound: COc1cc(-c2cc(F)cc(F)c2)c(Cl)cc1-c1nn(C)c(=O)c2cc(S(=O)(=O)Nc3nncs3)ccc12 [Example 235, 1-(2-chloro-3′,5′-difluoro-5-methoxy-4-biphenylyl)-3-methyl-4-oxo-N-1,3,4-thiadiazol-2-yl-3,4-dihydro-6-phthalazinesulfonamide]
IC50 ([1]; in-vitro PX): 0.0471 µM
IC50 ([2]; in-vitro PX): > 10 µM

Compound: COc1cc(-c2cc(F)cc(Cl)c2)c(C#N)cc1-c1nccc2cc(S(=O)(=O)Nc3ccon3)ccc12 [Example 86, 1-(3′-chloro-2-cyano-5′-fluoro-5-methoxy-4-biphenylyl)-N-3-isoxazolyl-6-isoquinolinesulfonamide]
IC50 ([1]; PatchXpress (PX), in vitro): 0.0244 µM
IC50 ([2]; PatchXpress (PX), in vitro): > 10 µM

Compound: COc1cc(-c2cc(F)cc(F)c2)c(C#N)cc1-c1ncnc2cc(S(=O)(=O)Nc3nncs3)ccc12 [Example 216, 4-(2-cyano-3′,5′-difluoro-5-methoxy-4-biphenylyl)-N-1,3,4-thiadiazol-2-yl-7-quinazolinesulfonamide]
IC50 ([1]; in-vitro PX): 0.0456 µM
IC50 ([2]; in-vitro PX): > 10 µM

Compound: COc1cc(-c2cccc(F)c2)c(Cl)cc1-c1nccc2cc(S(=O)(=O)Nc3ncon3)ccc12 [Example 7, 1-(2-CHLORO-3′-FLUORO-5-METHOXY-[1,1′-BIPHENYL]-4-YL)-N-(1,2,4-OXADIAZOL-3-YL)ISOQUINOLINE-6-SULFONAMIDE 2,2,2-TRIFLUOROACETATE]
IC50 [1]: 0.0477 µM
IC50 ([2]; in-vitro PX data): > 10 µM

Compound: COc1cc(-c2cc(F)cnc2OC)c(C#N)cc1-c1ncnc2cc(S(=O)(=O)Nc3nncs3)ccc12 [Example 20, 4-(5-CYANO-4-(5-FLUORO-2-METHOXYPYRIDIN-3-YL)-2-METHOXYPHENYL)-N-(1,3,4-THIADIAZOL-2-YL)QUINAZOLINE-7-SULFONAMIDE]
IC50 [1]: 0.182 µM
IC50 ([2]; in-vitro PX (PatchXpress) data): > 10 µM

Compound: COc1nc(N2CCC(F)(F)C2)c(Cl)cc1-c1nccc2cc(S(=O)(=O)Nc3nncs3)ccc12 [Example 237, 1-(5-chloro-6-(3,3-difluoro-1-pyrrolidinyl)-2-methoxy-3-pyridinyl)-N-1,3,4-thiadiazol-2-yl-6-isoquinolinesulfonamide]
IC50 ([1]; in-vitro PX): 0.336 µM
IC50 ([2]; in-vitro PX): > 30 µM

Compound: COc1cc(-c2cccc(F)c2)c(Cl)cc1-c1ncnc2cc(S(=O)(=O)Nc3ncon3)ccc12 [Example 26, 4-(2-CHLORO-3′-FLUORO-5-METHOXY-[1,1′-BIPHENYL]-4-YL)-N-(1,2,4-OXADIAZOL-3-YL)QUINAZOLINE-7-SULFONAMIDE]
IC50 ([1]; in-vitro PX): 0.085 µM
IC50 ([2]; in-vitro PX): > 10 µM

Compound: COc1cc(-c2cc(F)cc(F)c2)c(C#N)cc1-c1ncnc2cc(S(=O)(=O)Nc3ccon3)ccc12 [Example 202, 4-(2-cyano-3′,5′-difluoro-5-methoxy-4-biphenylyl)-N-3-isoxazolyl-7-quinazolinesulfonamide]
IC50 ([1]; in-vitro PX (PatchXpress) data): 0.046 µM
IC50 ([2]; in-vitro PX (PatchXpress) data): > 10 µM

Continued, in another order:

IC50 ([1]; in-vitro Nav 1.7 PX data): 0.0719 µM
Compound: COc1ccc(-c2ccc(C(F)(F)F)cc2)cc1-c1nccc2cc(S(=O)(=O)Nc3ccncn3)ccc12 [Example 147, 1-(4-methoxy-4′-(trifluoromethyl)-3-biphenylyl)-N-4-pyrimidinyl-6-isoquinolinesulfonamide]
IC50 ([2]; in-vitro Nav 1.5 PX data): > 10 µM

IC50 ([1]; in-vitro PX (PatchXpress) data): 0.169 µM
Compound: COc1cc(-c2cc(F)cnc2OC)ccc1-c1nccc2cc(S(=O)(=O)Nc3ccon3)ccc12 [Example 31, 1-(4-(5-FLUORO-2-METHOXYPYRIDIN-3-YL)-2-METHOXYPHENYL)-N-(ISOXAZOL-3-YL)ISOQUINOLINE-6-SULFONAMIDE]
IC50 ([2]; in-vitro PX (PatchXpress) data): > 10 µM

IC50 ([1]; in-vitro Nav 1.7 PX data): 0.0455 µM
Compound: COc1cc(-c2ccc(F)c(C)c2)c(C#N)cc1-c1nccc2cc(S(=O)(=O)Nc3ccncn3)ccc12 [Example 155, 1-(2-cyano-4′-fluoro-5-methoxy-3′-methyl-4-biphenylyl)-N-4-pyrimidinyl-6-isoquinolinesulfonamide]
IC50 ([2]; in-vitro Nav 1.5 PX data): 23.4 µM

IC50 ([1]; in-vitro PX (PatchXpress) data): 0.133 µM
Compound: COc1cc(Oc2ccc(C)c(F)c2)ccc1-c1nccc2cc(S(=O)(=O)Nc3nncs3)ccc12 [Example 194, 1-(4-(3-fluoro-4-methylphenoxy)-2-methoxyphenyl)-N-1,3,4-thiadiazol-2-yl-6-isoquinolinesulfonamide]
IC50 ([2]; in-vitro PX (PatchXpress) data): > 10 µM

IC50 ([1]; in-vitro Nav 1.7 PX data): 0.0138 µM
Compound: COc1cc(-c2cc(C)cc(Cl)c2)c(C#N)cc1-c1nccc2cc(S(=O)(=O)Nc3ccncn3)ccc12 [Example 160, 1-(3′-chloro-2-cyano-5-methoxy-5′-methyl-4-biphenylyl)-N-4-pyrimidinyl-6-isoquinolinesulfonamide]
IC50 ([2]; in-vitro Nav 1.5 PX data): 18.3 µM

IC50 ([1]; in-vitro PX (PatchXpress) data): 0.0994 µM
Compound: COc1cc(Oc2cc(F)ccc2F)ccc1-c1nccc2cc(S(=O)(=O)Nc3nncs3)ccc12 [Example 187, 1-(4-(2,5-difluorophenoxy)-2-methoxyphenyl)-N-1,3,4-thiadiazol-2-yl-6-isoquinolinesulfonamide]
IC50 ([2]; in-vitro PX (PatchXpress) data): > 10 µM

IC50 ([1]; in-vitro Nav 1.7 PX data): 0.0435 µM
Compound: COc1cc(-c2ccc(Cl)c(F)c2)c(C#N)cc1-c1nccc2cc(S(=O)(=O)Nc3ccncn3)ccc12 [Example 154, 1-(4′-chloro-2-cyano-3′-fluoro-5-methoxy-4-biphenylyl)-N-4-pyrimidinyl-6-isoquinolinesulfonamide]
IC50 ([2]; in-vitro Nav 1.5 PX data): > 30 µM

IC50 ([1]; in-vitro PX (PatchXpress) data): 0.204 µM
Compound: COc1cc(Oc2ccc(C)c(C)c2)ccc1-c1nccc2cc(S(=O)(=O)Nc3ccncn3)ccc12 [Example 176, 1-(4-(3,4-dimethylphenoxy)-2-methoxyphenyl)-N-4-pyrimidinyl-6-isoquinolinesulfonamide]
IC50 ([2]; in-vitro PX (PatchXpress) data): > 10 µM

IC50 ([1]; in-vitro Nav 1.7 PX data): 0.0473 µM
Compound: COc1cc(-c2cccc(C)c2)c(C#N)cc1-c1nccc2cc(S(=O)(=O)Nc3ccncn3)ccc12 [Example 156, 1-(2-cyano-5-methoxy-3′-methyl-4-biphenylyl)-N-4-pyrimidinyl-6-isoquinolinesulfonamide]
IC50 ([2]; in-vitro Nav 1.5 PX data): 30.8 µM

IC50 ([1]; in-vitro Nav 1.7 PX data): 0.171 µM
Compound: COc1cc(Oc2ccccc2C)ccc1-c1nccc2cc(S(=O)(=O)Nc3ccncn3)ccc12 [Example 170, 1-(2-methoxy-4-(2-methylphenoxy)phenyl)-N-4-pyrimidinyl-6-isoquinolinesulfonamide]
IC50 ([2]; in-vitro Nav 1.5 PX data): > 10 µM

IC50 ([1]; PatchXpress (PX), in vitro): 0.436 µM
Compound: COc1nc(NC2CCCCC2)ccc1-c1nccc2cc(S(=O)(=O)Nc3ccncn3)ccc12 [Example 73, 1-(6-(cyclohexylamino)-2-methoxy-3-pyridinyl)-N-4-pyrimidinyl-6-isoquinolinesulfonamide]
IC50 ([2]; PatchXpress (PX), in vitro): > 10 µM

IC50 ([1]; in-vitro Nav 1.7 PX data): 0.47 µM
Compound: COc1ccc(F)cc1-c1cc(OC)c(-c2nccc3cc(S(=O)(=O)Nc4ccncn4)ccc23)cc1C#N [Example 162, 1-(2-cyano-5′-fluoro-2′,5-dimethoxy-4-biphenylyl)-N-4-pyrimidinyl-6-isoquinolinesulfonamide]
IC50 ([2]; in-vitro Nav 1.5 PX data): > 10 µM

IC50 ([1]; in-vitro PX data): 0.0218 µM
Compound: COc1cc(-c2cccc(Cl)c2)c(C#N)cc1-c1nccc2cc(S(=O)(=O)Nc3ccon3)ccc12 [Example 111, 1-(3′-chloro-2-cyano-5-methoxy-4-biphenylyl)-N-3-isoxazolyl-6-isoquinolinesulfonamide]
IC50 ([2]; in-vitro PX data): > 10 µM

IC50 ([1]; in-vitro Nav 1.7 PX data): 0.0801 µM
Compound: COc1cc(-c2cc(F)cnc2OC)ccc1-c1nccc2cc(S(=O)(=O)Nc3nncs3)ccc12 [Example 30, 1-(4-(5-FLUORO-2-METHOXYPYRIDIN-3-YL)-2-METHOXYPHENYL)-N-(1,3,4-THIADIAZOL-2-YL)ISOQUINOLINE-6-SULFONAMIDE]
IC50 ([2]; in-vitro Nav 1.5 PX data): > 30 µM

IC50 ([1]; in-vitro PX): 0.0338 µM
Compound: COc1cc(-c2ccc(F)cc2)c(C#N)cc1-c1nccc2cc(S(=O)(=O)Nc3nncs3)ccc12 [Example 219, 1-(2-cyano-4′-fluoro-5-methoxy-4-biphenylyl)-N-1,3,4-thiadiazol-2-yl-6-isoquinolinesulfonamide]
IC50 ([2]; in-vitro PX): > 10 µM

IC50 ([1]; in-vitro PX data): 0.141 µM
Compound: COc1cc(-c2cccc(F)c2)c(Cl)cc1-c1nccc2cc(S(=O)(=O)Nc3cccnn3)ccc12 [Example 120, 1-(2-chloro-3′-fluoro-5-methoxy-4-biphenylyl)-N-3-pyridazinyl-6-isoquinolinesulfonamide]
IC50 ([2]; in-vitro PX data): > 10 µM

IC50 ([1]; in-vitro PX (PatchXpress) data): 0.056 µM
Compound: COc1cc(-c2ccc(C(F)(F)F)cc2)c(C#N)cc1-c1nccc2cc(S(=O)(=O)Nc3ccncn3)ccc12 [Example 185, 1-(2-cyano-5-methoxy-4′-(trifluoromethyl)-4-biphenylyl)-N-4-pyrimidinyl-6-isoquinolinesulfonamide]
IC50 ([2]; in-vitro PX (PatchXpress) data): 20.7 µM

IC50 ([1]; in-vitro PX (PatchXpress) data): 0.126 µM
Compound: COc1cc(Oc2cccc(C)c2)ccc1-c1nccc2cc(S(=O)(=O)Nc3ccncn3)ccc12 [Example 181, 1-(2-methoxy-4-(3-methylphenoxy)phenyl)-N-4-pyrimidinyl-6-isoquinolinesulfonamide]
IC50 ([2]; in-vitro PX (PatchXpress) data): > 10 µM
